Test results reported in patent US10011595B2 (Merck Sharp & Dohme Corp., priority 2014, dated 2018).

target: human orexin-2 receptor (Homo sapiens (Human), UniProt O43614); assay: FLIPR Ca2+ Flux Assay, orexin-2 receptor; type: cell-based; conditions: CHO cells expressing the human orexin-2 receptor; agonist 70 pM Ala-6,12 orexin-A; read-out: hOX2R FLIPR IC50
Summary of the method: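 CHO cells expressing rat OX1 or human OX2 receptor, Fluo-4AM loaded 60 min; compound preincubated 5 min before 70 pM Ala-6,12 human orexin-A in HBSS/20 mM HEPES/0.1% BSA/2.5 mM probenecid, pH 7.4. FLIPR peak fluorescence over 5 min versus agonist-only response gives IC50.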

human orexin-2 receptor, sequence (O43614 whole entry): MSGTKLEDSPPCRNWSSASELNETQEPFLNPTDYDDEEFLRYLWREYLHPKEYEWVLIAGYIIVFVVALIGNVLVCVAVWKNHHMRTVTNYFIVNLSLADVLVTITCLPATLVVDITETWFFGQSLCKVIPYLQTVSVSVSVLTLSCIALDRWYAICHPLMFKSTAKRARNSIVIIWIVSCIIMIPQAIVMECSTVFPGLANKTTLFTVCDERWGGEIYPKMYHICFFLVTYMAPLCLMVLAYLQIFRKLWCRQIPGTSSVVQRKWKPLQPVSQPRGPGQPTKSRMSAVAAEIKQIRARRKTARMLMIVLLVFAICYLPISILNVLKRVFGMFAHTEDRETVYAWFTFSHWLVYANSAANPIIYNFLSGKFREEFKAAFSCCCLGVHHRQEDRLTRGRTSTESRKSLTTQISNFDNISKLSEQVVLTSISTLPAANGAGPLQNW

SMILES	IC50 [µM]
CCN(CCN(C)c1nccc(C(C)(C)O)n1)C(=O)c1ccccc1OC(F)(F)F [Example H-27]	0.01
CCN(CCN(C)c1nccc(C(C)(C)O)n1)C(=O)c1ccc(OC)nc1C1CC1 [Example H-28, 2-cyclopropyl-N-ethyl-N-(2-((4-(2-hydroxypropan-2-yl)pyrimidin-2-yl)(methyl)amino)ethyl)-6-methoxynicotinamide]	0.02
CCN(CCN(C)c1nccc(C(C)(C)O)n1)C(=O)c1ccccc1-n1ncnn1 [Example H-29, N-ethyl-N-(2-((4-(2-hydroxypropan-2-yl)pyrimidin-2-yl)(methyl)amino)ethyl)-2-(2H-tetrazol-2-yl)benzamide]	0.017
CCN(CCN(C)c1nccc(C(C)(C)O)n1)C(=O)c1cccnc1-c1ccccc1 [Example H-30, N-ethyl-N-(2-((4-(2-hydroxypropan-2-yl)pyrimidin-2-yl)(methyl)amino)ethyl)-2-phenylnicotinamide]	0.053
CCN(CCN(C)c1nccc(C(C)(C)O)n1)C(=O)c1ncccc1-c1ccccc1 [Example H-31, N-ethyl-N-(2-((4-(2-hydroxypropan-2-yl)pyrimidin-2-yl)(methyl)amino)ethyl)-3-phenylpicolinamide]	0.023
CCN(CCN(C)c1nccc(C(C)(C)O)n1)C(=O)c1nccnc1-n1cccn1 [Example H-32, N-ethyl-N-(2-((4-(2-hydroxypropan-2-yl)pyrimidin-2-yl)(methyl)amino)ethyl)-3-(1H-pyrazol-1-yl)pyrazine-2-carboxamide]	0.054
CCN(CCN(C)c1nccc(C(C)(C)O)n1)C(=O)c1cccnc1-n1cccn1 [Example H-33, N-ethyl-N-[2-[[4-(1-hydroxy-1-methyl-ethyl)pyrimidin-2-yl]-methyl-amino]ethyl]-2-pyrazol-1-yl-pyridine-3-carboxamide]	0.037
CCN(CCN(C)c1nccc(C(C)(C)O)n1)C(=O)c1ncccc1-n1nccn1 [Example H-34, N-ethyl-N-[2-[[4-(1-hydroxy-1-methyl-ethyl)pyrimidin-2-yl]-methyl-amino]ethyl]-3-(triazol-2-yl)pyridine-2-carboxamide]	0.043
CCN(CCN(C)c1cccc(C(C)(C)O)n1)C(=O)c1ccccc1-n1nccn1 [Example I-1, N-ethyl-N-(2-((6-(2-hydroxypropan-2-yl)pyridin-2-yl)(methyl)amino)ethyl)-2-(2H-1,2,3-triazol-2-yl)benzamide]	0.0124
CCN(CCN(C)c1cccc(C(C)(C)O)n1)C(=O)c1ccccc1OCC(F)F [Example I-4, 2-(2,2-difluoroethoxy)-N-ethyl-N-(2-((6-(2-hydroxypropan-2-yl)pyridin-2-yl)(methyl)amino)ethyl)benzamide]	0.179
CCN(CCN(C)c1cccc(C(C)(C)O)n1)C(=O)c1ncccc1-n1nccn1 [Example I-9, N-ethyl-N-(2-((6-(2-hydroxypropan-2-yl)pyridin-2-yl)(methyl)amino)ethyl)-3-(2H-1,2,3-triazol-2-yl)picolinamide]	0.312
CCN(CCN(C)c1cccc(C(C)(C)O)n1)C(=O)c1ccccc1-n1cccn1 [Example I-10, N-ethyl-N-(2-((6-(2-hydroxypropan-2-yl)pyridin-2-yl)(methyl)amino)ethyl)-2-(1H-pyrazol-1-yl)benzamide]	0.0933
CCN(CCN(C)c1cccc(C(C)(C)O)n1)C(=O)c1nccnc1-n1cccn1 [Example I-11, N-ethyl-N-(2-((6-(2-hydroxypropan-2-yl)pyridin-2-yl)(methyl)amino)ethyl)-3-(1H-pyrazol-1-yl)pyrazine-2-carboxamide]	0.328
CCN(CCN(C)c1cccc(C(C)(C)O)n1)C(=O)c1ccccc1OC(F)(F)F [Example I-12, N-ethyl-N-(2-((6-(2-hydroxypropan-2-yl)pyridin-2-yl)(methyl)amino)ethyl)-2-(trifluoromethoxy)benzamide]	0.0737
CCN(CCN(C)c1cccc(C(C)(C)O)n1)C(=O)c1ccccc1C1CC1 [Example I-13, 2-cyclopropyl-N-ethyl-N-(2-((6-(2-hydroxypropan-2-yl)pyridin-2-yl)(methyl)amino)ethyl)benz-amide]	0.0537
CCN(CCN(C)c1cccc(C(C)(C)O)n1)C(=O)c1ccccc1OC(F)F [Example I-14, 2-(difluoromethoxy)-N-ethyl-N-(2-((6-(2-hydroxypropan-2-yl)pyridin-2-yl)(methyl)amino)ethyl)benz-amide]	0.201
CCN(CCN(C)c1cccc(C(C)(C)O)n1)C(=O)c1cccnc1OCC(F)(F)F [Example I-15, N-ethyl-N-(2-((6-(2-hydroxypropan-2-yl)pyridin-2-yl)(methyl)amino)ethyl)-2-(2,2,2-trifluoroethoxy)nicotinamide]	0.306
CCN(CCN(C)c1cccc(C(C)(C)O)n1)C(=O)c1cccnc1OCC(F)F [Example I-16, 2-(2,2-difluoroethoxy)-N-ethyl-N-(2-((6-(2-hydroxypropan-2-yl)pyridin-2-yl)(methyl)amino)ethyl)nicotin-amide]	0.235
CCN(CCN(C)c1cccc(C(C)(C)O)n1)C(=O)c1ccccc1OCC(F)(F)F [Example I-17, N-ethyl-N-(2-((6-(2-hydroxypropan-2-yl)pyridin-2-yl)(methyl)amino)ethyl)-2-(2,2,2-trifluoroethoxy)benzamide]	0.326
CCOc1ccccc1C(=O)N(CC)CCN(C)c1cccc(C(C)(C)O)n1 [Example I-18, 2-ethoxy-N-ethyl-N-(2-((6-(2-hydroxypropan-2-yl)pyridin-2-yl)(methyl)amino)ethyl)benz-amide]	0.154
CCN(CCN(C)c1cccc(C(C)(C)O)n1)C(=O)c1cccnc1CC(F)(F)F [Example I-19, N-ethyl-N-(2-((6-(2-hydroxypropan-2-yl)pyridin-2-yl)(methyl)amino)ethyl)-2-(2,2,2-trifluoroethyl)nicotinamide]	2.27
CCN(CCN(C)c1cccc(C(C)(C)O)n1)C(=O)c1ccccc1C1CC1(F)F (stereo not drawn) [Example I-20, 2-(2,2-difluorocyclopropyl)-N-ethyl-N-(2-((6-(2-hydroxypropan-2-yl)pyridin-2-yl)(methyl)amino)ethyl)benz-amide]	0.0364
CCN(CCN(C)c1cccc(C(C)(C)O)n1)C(=O)c1cccnc1OC(C)C [Example I-21, N-ethyl-N-(2-((6-(2-hydroxypropan-2-yl)pyridin-2-yl)(methyl)amino)ethyl)-2-isopropoxynicotinamide]	0.387
CCN(CCN(C)c1cccc(C(C)(C)O)n1)C(=O)c1ncccc1-c1ccccc1 [Example I-22, N-ethyl-N-(2-((6-(2-hydroxypropan-2-yl)pyridin-2-yl)(methyl)amino)ethyl)-3-phenylpicolinamide]	0.211
CCN(CCN(C)c1cccc(C(C)(C)O)n1)C(=O)c1ccccc1-n1ncnn1 [Example I-23, N-ethyl-N-(2-((6-(2-hydroxypropan-2-yl)pyridin-2-yl)(methyl)amino)ethyl)-2-(2H-tetrazol-2-yl)benzamide]	0.0696
CCN(CCN(C)c1cccc(C(C)(C)O)n1)C(=O)c1cccnc1-n1cccn1 [Example I-24, N-ethyl-N-(2-((6-(2-hydroxypropan-2-yl)pyridin-2-yl)(methyl)amino)ethyl)-2-(1H-pyrazol-1-yl)nicotinamide]	0.104
CCOc1ncccc1C(=O)N(CC)CCN(C)c1cccc(C(C)(C)O)n1 [Example I-25, 2-ethoxy-N-ethyl-N-(2-((6-(2-hydroxypropan-2-yl)pyridin-2-yl)(methyl)amino)ethyl)nicotin-amide]	0.466
